The values below are quoted from earlier work in US20090004170A1, “COMPOSITION COMPRISING COENZYME Q10” (Kaneka Corporation, priority 2007, published 2009).

Test in series [1]: not given
The source holds these as a separate data set.

The structures appear in SMILES notation.

Turning to `COC1=C(OC)C(=O)C(C/C=C(\C)CC/C=C(\C)CC/C=C(\C)CC/C=C(\C)CC/C=C(\C)CC/C=C(\C)CC/C=C(\C)CC/C=C(\C)CC/C=C(\C)CCC=C(C)C)=C(C)C1=O` [coenzyme Q10], the “absorbability by oral ingestion” value was “extremely low”. Moreover, the solubility in water result in series [1] was “sparingly soluble”.
